Consider 1 compound from BindingDB's records for doi:10.1016/j.bmc.2020.115818 (Taisho Pharmaceutical, 2020).

The nature of the experiment: Inhibition of F protein in Respiratory syncytial virus A2 infected in HepG2 cells assessed as reduction in virus-induced cytopathic effect incubated for 4 days by XTT assay. (Protection from cytopathic effect is a common read-out in antiviral testing.)

As to `Cc1ccc2c(c1)C(=O)N1CCCC[C@H]1c1cc3nc([C@H]4C[C@H](O)C4)cc(n3n1)N(C)CCNC(=O)CO2`, the EC50 – broadly, the concentration at which the effect is half-maximal – is 0.77 nM.
